This passage reports inhibition results from ChEMBL document CHEMBL4387741, “Optimization of novel reversible Bruton's tyrosine kinase inhibitors identified using Tethering-fragment-based screens” (Bioorg Med Chem, 2019).

Usually inhibition stands for the share of the control response that was lost under treatment.

Assay [1] has as its target Ribosomal protein S6 kinase alpha-3 (Homo sapiens) (UniProt P51812). Kind of assay: Inhibition of wild-type human partial length N-terminal RSK2 kinase domain 1 (M1 to D394 residues) expressed in mammalian expression system at 1 uM by Kinomescan method relative to control.
Assay [2] addresses Tyrosine-protein kinase Srms (Homo sapiens) (UniProt Q9H3Y6). Put plainly: Inhibition of wild-type human partial length SRMS (L208 to P488 residues) expressed in mammalian expression system at 1 uM by Kinomescan method relative to control.
In assay [3] the target is Serine/threonine-protein kinase 25 (Homo sapiens) (UniProt O00506). Put plainly: Inhibition of wild-type human partial length YSK1 (V14 to H295 residues) expressed in bacterial expression system at 1 uM by Kinomescan method relative to control.
Serine/threonine-protein kinase 25 (Homo sapiens), sequence (O00506 whole entry, looked up, the tested form may be a part): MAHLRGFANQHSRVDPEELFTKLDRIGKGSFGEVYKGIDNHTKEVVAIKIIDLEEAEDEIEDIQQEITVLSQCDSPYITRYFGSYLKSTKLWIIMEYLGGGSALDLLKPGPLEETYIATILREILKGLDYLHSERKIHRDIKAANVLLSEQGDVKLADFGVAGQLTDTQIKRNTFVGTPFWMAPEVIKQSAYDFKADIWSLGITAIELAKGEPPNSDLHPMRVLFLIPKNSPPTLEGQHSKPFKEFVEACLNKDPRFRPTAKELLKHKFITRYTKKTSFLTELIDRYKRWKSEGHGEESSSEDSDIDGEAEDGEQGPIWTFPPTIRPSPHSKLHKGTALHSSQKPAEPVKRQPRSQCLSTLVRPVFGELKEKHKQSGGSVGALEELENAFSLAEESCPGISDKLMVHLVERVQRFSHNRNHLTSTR
The target in assay [4] is Tyrosine-protein kinase Mer (Homo sapiens) (UniProt Q12866). Kind of assay: Inhibition of wild-type human partial length MERTK (R557 to L884 residues) expressed in bacterial expression system at 1 uM by Kinomescan method relative to control.
Tyrosine-protein kinase Mer (Homo sapiens), sequence (Q12866 whole entry, the tested form may be a part): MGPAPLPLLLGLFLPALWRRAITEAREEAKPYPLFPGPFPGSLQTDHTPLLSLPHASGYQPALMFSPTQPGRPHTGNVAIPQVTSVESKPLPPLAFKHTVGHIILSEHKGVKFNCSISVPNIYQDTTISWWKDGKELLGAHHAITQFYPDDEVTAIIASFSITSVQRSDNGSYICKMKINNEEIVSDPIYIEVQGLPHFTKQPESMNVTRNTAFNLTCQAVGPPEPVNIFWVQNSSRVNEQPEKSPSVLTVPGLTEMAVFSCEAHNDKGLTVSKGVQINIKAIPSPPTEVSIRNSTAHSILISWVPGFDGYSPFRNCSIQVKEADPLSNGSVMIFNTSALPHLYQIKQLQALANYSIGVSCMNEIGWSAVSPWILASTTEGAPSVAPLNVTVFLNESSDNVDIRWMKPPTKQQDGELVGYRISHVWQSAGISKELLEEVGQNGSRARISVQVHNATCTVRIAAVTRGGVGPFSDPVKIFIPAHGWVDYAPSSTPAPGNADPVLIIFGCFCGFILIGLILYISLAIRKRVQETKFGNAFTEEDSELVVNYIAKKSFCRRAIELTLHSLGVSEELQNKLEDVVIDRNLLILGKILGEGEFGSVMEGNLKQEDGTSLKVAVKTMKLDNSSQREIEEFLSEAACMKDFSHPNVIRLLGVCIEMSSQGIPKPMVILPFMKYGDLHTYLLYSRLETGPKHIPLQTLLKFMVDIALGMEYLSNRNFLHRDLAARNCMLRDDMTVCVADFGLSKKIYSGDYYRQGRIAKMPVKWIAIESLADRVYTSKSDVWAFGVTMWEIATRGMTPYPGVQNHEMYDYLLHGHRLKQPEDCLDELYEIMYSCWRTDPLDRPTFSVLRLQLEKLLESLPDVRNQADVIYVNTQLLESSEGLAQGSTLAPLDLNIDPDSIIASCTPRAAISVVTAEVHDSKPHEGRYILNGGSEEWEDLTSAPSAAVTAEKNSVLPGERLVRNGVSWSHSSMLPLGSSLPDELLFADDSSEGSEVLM
For assay [5], the target named is Serine/threonine-protein kinase 3 (Homo sapiens) (UniProt Q13188). Put plainly: Inhibition of wild-type human partial length MST2 (D17 to E318 residues) expressed in bacterial expression system at 1 uM by Kinomescan method relative to control.
Serine/threonine-protein kinase 3 (Homo sapiens), sequence (Q13188 whole entry, the tested form may be a part): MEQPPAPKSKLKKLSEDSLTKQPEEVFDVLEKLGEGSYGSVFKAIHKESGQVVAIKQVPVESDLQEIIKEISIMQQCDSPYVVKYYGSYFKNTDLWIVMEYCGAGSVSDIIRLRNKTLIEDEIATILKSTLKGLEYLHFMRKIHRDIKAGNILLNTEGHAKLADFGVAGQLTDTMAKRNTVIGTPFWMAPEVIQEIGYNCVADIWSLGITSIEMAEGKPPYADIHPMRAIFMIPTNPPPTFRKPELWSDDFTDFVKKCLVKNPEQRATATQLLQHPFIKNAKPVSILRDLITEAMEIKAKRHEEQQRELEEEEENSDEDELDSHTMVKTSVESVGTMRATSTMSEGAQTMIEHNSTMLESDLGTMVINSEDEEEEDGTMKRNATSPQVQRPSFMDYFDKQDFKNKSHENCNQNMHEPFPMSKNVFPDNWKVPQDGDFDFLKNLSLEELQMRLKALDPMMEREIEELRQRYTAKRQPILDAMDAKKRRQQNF
Assay [6] addresses ALK tyrosine kinase receptor (Homo sapiens) (UniProt Q9UM73). Put plainly: Inhibition of wild-type human partial length ALK (I1088 to E1409 residues) expressed in mammalian expression system at 1 uM by Kinomescan method relative to control.
The target of assay [7] is Ephrin type-A receptor 4 (Homo sapiens) (UniProt P54764). Kind of assay: Inhibition of wild-type human partial length EPHA4 (T601 to R897 residues) expressed in bacterial expression system at 1 uM by Kinomescan method relative to control.
Assay [8] deals with Serine/threonine-protein kinase N1 (Homo sapiens) (UniProt Q16512). Put plainly: Inhibition of wild-type human partial length PKN1 (E598 to C948 residues) expressed in bacterial expression system at 10 uM by Kinomescan method relative to control.
The target of assay [9] is Mitogen-activated protein kinase 6 (Homo sapiens) (UniProt Q16659). Put plainly: Inhibition of wild-type human partial length ERK3 (M1 to P413 residues) expressed in bacterial expression system at 10 uM by Kinomescan method relative to control.
Assay [10] has as its target Receptor tyrosine-protein kinase erbB-4 (Homo sapiens) (UniProt Q15303). Kind of assay: Inhibition of wild-type human partial length ERBB4 (L690 to K994 residues) expressed in bacterial expression system at 10 uM by Kinomescan method relative to control.
Assay [11] deals with Serine/threonine-protein kinase STK11 (Homo sapiens) (UniProt Q15831). Put plainly: Inhibition of wild-type human full length LKB1 (M1 to Q433 residues) expressed in bacterial expression system at 10 uM by Kinomescan method relative to control.
Serine/threonine-protein kinase STK11 (Homo sapiens), sequence (Q15831 whole entry, the tested form may be a part): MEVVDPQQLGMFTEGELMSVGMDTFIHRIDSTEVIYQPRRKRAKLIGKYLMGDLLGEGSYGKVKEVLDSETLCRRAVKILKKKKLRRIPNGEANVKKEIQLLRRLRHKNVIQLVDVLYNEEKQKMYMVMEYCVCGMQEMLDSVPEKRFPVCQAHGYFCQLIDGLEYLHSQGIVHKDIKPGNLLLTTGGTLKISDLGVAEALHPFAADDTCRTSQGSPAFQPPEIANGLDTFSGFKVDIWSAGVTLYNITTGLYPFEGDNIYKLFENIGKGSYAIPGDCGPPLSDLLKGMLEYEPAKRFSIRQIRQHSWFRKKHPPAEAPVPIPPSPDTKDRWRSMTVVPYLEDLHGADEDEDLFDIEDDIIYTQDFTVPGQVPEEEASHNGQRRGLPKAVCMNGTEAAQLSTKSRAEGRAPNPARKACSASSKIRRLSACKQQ
Assay [12] concerns the target Dual specificity protein kinase CLK2 (Homo sapiens) (UniProt P49760). Put plainly: Inhibition of wild-type human partial length CLK2 (D144 to R498 residues) expressed in bacterial expression system at 10 uM by Kinomescan method relative to control.
Assay [13] concerns the target Dual specificity protein kinase CLK3 (Homo sapiens) (UniProt P49761). Kind of assay: Inhibition of wild-type human full length CLK3 (M1 to R490 residues) expressed in bacterial expression system at 10 uM by Kinomescan method relative to control.
The target in assay [14] is Calcium/calmodulin-dependent protein kinase type 1 (Homo sapiens) (UniProt Q14012). Kind of assay: Inhibition of wild-type human full length CAMK1 (M1 to L370 residues) expressed in bacterial expression system at 10 uM by Kinomescan method relative to control.
Calcium/calmodulin-dependent protein kinase type 1 (Homo sapiens), sequence (Q14012 whole entry, looked up, the tested form may be a part): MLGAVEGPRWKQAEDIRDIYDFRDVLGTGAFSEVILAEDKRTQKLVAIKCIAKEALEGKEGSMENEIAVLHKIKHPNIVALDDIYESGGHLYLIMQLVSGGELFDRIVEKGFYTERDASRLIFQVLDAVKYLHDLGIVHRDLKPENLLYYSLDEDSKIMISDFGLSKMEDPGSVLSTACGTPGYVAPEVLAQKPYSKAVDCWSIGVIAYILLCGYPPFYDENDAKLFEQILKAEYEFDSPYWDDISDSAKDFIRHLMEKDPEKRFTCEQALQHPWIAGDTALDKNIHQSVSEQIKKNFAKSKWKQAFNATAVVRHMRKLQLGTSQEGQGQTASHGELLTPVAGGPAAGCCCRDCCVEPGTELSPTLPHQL

Dual specificity protein kinase CLK3 (Homo sapiens), sequence (P49761 whole entry, looked up, the tested form may be a part): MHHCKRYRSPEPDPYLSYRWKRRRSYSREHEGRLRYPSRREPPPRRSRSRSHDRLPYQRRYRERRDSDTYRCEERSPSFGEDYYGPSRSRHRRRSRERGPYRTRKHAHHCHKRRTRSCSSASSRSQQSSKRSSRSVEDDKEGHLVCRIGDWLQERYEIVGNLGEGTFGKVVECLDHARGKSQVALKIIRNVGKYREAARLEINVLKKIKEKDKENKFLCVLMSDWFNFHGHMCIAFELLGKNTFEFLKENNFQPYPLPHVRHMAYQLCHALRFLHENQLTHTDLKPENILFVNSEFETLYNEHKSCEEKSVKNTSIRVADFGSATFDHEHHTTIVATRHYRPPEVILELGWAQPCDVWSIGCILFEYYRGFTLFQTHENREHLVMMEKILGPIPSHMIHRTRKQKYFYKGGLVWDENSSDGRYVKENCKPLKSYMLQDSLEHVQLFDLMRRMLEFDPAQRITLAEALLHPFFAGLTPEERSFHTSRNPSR
ALK tyrosine kinase receptor (Homo sapiens), sequence (Q9UM73 19-1620 limits assumed): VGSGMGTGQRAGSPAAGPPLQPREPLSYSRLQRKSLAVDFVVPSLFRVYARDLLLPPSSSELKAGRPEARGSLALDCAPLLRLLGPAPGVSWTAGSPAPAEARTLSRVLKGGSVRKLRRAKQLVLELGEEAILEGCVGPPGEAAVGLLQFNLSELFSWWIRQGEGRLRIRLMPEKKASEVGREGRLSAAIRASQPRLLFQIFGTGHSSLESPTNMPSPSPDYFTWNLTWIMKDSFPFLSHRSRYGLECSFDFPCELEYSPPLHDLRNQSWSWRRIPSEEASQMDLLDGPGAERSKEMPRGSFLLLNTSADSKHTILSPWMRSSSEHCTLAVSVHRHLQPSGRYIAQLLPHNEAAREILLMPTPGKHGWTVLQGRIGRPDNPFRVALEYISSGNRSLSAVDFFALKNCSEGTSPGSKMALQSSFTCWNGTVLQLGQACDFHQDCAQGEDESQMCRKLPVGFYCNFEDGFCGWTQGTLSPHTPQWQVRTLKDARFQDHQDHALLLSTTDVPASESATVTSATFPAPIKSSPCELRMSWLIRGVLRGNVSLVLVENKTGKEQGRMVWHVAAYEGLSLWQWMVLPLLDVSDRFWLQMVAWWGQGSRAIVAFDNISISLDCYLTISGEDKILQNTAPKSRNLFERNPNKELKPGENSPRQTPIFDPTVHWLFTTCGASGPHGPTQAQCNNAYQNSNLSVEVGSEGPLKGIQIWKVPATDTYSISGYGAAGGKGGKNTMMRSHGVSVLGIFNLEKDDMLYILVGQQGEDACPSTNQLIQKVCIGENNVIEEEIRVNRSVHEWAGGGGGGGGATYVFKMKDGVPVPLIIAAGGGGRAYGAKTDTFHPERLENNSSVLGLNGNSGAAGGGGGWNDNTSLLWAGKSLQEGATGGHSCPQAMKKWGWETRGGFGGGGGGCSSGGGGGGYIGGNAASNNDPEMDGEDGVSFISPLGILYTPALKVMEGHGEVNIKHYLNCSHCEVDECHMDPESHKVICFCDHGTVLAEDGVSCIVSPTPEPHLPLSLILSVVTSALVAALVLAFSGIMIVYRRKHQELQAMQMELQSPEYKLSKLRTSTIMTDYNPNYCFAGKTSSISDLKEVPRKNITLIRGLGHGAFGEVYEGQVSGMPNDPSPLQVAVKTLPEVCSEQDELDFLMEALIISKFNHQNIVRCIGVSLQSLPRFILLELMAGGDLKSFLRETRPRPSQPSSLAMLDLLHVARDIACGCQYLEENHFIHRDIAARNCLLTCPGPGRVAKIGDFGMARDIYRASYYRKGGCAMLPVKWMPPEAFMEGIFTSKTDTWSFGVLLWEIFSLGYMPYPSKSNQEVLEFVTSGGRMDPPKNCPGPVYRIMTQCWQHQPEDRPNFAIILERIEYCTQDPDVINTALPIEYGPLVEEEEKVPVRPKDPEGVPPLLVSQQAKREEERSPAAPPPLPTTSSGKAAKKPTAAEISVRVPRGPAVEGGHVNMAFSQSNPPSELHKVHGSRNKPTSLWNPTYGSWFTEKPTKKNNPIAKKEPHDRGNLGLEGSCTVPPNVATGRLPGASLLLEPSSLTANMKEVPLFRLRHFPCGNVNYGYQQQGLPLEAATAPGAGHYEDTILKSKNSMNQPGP

Turning to `O=C(Nc1cccc([C@@H]2CN(c3ncnc4[nH]ccc34)CCN2CCO)c1)Nc1c(F)cccc1N1CCCC1`, the inhibition in [1] stood at 94%; in assay [2], 76%; in assay [3] it was 91%; in assay [4] it was 31%; in [5], 64%; in assay [6], 98%. This molecule also displayed an inhibition in [7] of 100%.
On to `O=C(Nc1cccc([C@H]2CCCN(c3ncnc4[nH]ccc34)C2)c1)Nc1ccccc1N1CCCC1`, for which the inhibition was 100% in [8]; 100% in assay [9]; 88% in assay [10]; 25% in [11]; 53% in assay [12]; 87% in [13]. Moreover, the inhibition in [14] was determined as 24%.
